In patent US7939546B2, “Quinoline derivatives for modulating DNA methylation” (SuperGen, Inc., priority 2007, dated 2011):

Key:
[1] = system: p16; experiment: RT-PCR assay for gene expression (p16) in RKO and HCT-116 cells; format: cell-based; settings: for RNA expression levels of p16: FIG. 1, varying concentrations, forty eight hour incubation
Description: RKO and HCT-116 cells were treated with Cpd. AAA, Cpd. BBB, and Cpd. CCC at varying concentrations. After a forty eight hour incubation cells were harvested for RNA isolation using the Qiagen RNeasy Mini kit. RNA was quantified using a spectrophotometer and 1 μg of RNA was used for cDNA synthesis using the Bio-Rad iScript cDNA Synthesis Kit. RTPCR was performed using SYBER GreenER qPCR SuperMix for iCycler according to the manufacturer's protocol. Primer sequences used are as follows [NT] (SEQ ID NO: 2) and [NT] (SEQ ID NO: 3), MLH-1 [NT] (SEQ ID NO: 4) and [NT] (SEQ ID NO:5), [NT] (SEQ ID NO: 6) and [NT] (SEQ ID NO: 7), GAPDH [NT] (SEQ ID NO:8) and [NT] (SEQ ID NO:9), and […] (SEQ ID NO: 10) and [NT] (SEQ ID NO:11). Samples were analyzed on the iQ5 Multicolor Real-Time PCR Detection System from Bio-Rad. Data analysis was performed using the iQ5 Optical System Software version 2.0, Threshold Cycle (CT) and CT mean values were determined from this software. For each sample there are at least four reactions, two for p16 and two for GAPDH the housekeeping control. The mean CT value from the GAPDH reactions was subtracted from each of the corresponding p16 samples CT giving a value termed Delta CT. Then the Delta CT for the untreated p16 sample is subtracted from all treated Delta CT values giving another value termed Delta Delta CT. […] The duplicate samples are averaged together to get an average Relative Expression for each treatment and the Standard Error is calculated. Relative expression values for p15 and MLH-1 were calculated using the same method. […] AAA, Cpd. BBB, and Cpd. […] Cpd. […] Because the higher levels of p16 seemed to have less effect in causing re-expression of p16 there may be some issues with drug solubility or toxicity at the higher concentrations tested.

[2] = system: HCT-116; experiment: Cell-based growth assay (Cell-Titer-Glo), HCT-116; settings: Homo sapiens; HCT-116, 96 hours; read-out: IC50 Values CTG
Description: (§1) Cell culture-based assays can be used to evaluate the ability of compounds of the invention to inhibit one or more cellular activities, such as cancer cell growth and/or survival. Numerous cancer cell lines can be obtained from the American Type Culture Collection (ATCC) and other sources. Briefly, cells are seeded into 96-well, tissue-culture treated, opaque white plates (Thermo Electron, Vantaa, Finland), at between 5000 and 10000 cells per well, depending on the speed of cell proliferation, in 100 μl of appropriate growth medium (determined by the ATCC). Cells are then exposed to the appropriate concentration of drug or an equal amount of DMSO (drug diluent) and allowed to grow in its presence for 96 hours. Following this, 100 μl of Cell-Titer-Glo (CTG) reagent (Promega, Inc., Madison, Wis.) is added to each well. Plates are then shaken for 2 minutes at room temperature to allow for cell lysis and incubated for 10 minutes at room temperature to stabilize the luminescent signal. Similar to the Kinase-Glo assay reagent from Promega, this reagent contains both luciferase enzyme and its substrate luciferin. Luciferase, activated by ATP in the cell lysate, catalyzes the conversion of luciferin to oxyluciferin, a reaction which produces light. […]

[3] = system: RKO; experiment: Cell-based growth assay (Cell-Titer-Glo), RKO; settings: Homo sapiens, 96 hours, read-out: IC50 Values CTG
Description: Cell culture-based assays can be used to evaluate the ability of compounds of the invention to inhibit one or more cellular activities, such as cancer cell growth and/or survival. Numerous cancer cell lines can be obtained from the American Type Culture Collection (ATCC) and other sources. Briefly, cells are seeded into 96-well, tissue-culture treated, opaque white plates (Thermo Electron, Vantaa, Finland), at between 5000 and 10000 cells per well, depending on the speed of cell proliferation, in 100 μl of appropriate growth medium (determined by the ATCC). Cells are then exposed to the appropriate concentration of drug or an equal amount of DMSO (drug diluent) and allowed to grow in its presence for 96 hours. Following this, 100 μl of Cell-Titer-Glo (CTG) reagent (Promega, Inc., Madison, Wis.) is added to each well. Plates are then shaken for 2 minutes at room temperature to allow for cell lysis and incubated for 10 minutes at room temperature to stabilize the luminescent signal. Similar to the Kinase-Glo assay reagent from Promega, this reagent contains both luciferase enzyme and its substrate luciferin. Luciferase, activated by ATP in the cell lysate, catalyzes the conversion of luciferin to oxyluciferin, a reaction which produces light. The amount of light produced is proportionate to the amount of ATP in the cell lysate, which is itself proportional to cell number and gives an index of cellular proliferation.

[4] = system: Panc-1; experiment: Cell-based growth assay (Cell-Titer-Glo), Panc-1; settings: Homo sapiens; Panc-1, 96 hours; read-out: IC50 Values CTG
Description: as §1

| Compound | RNA expression levels of p16 [1] | re-expression of p16 over no treatment ([1]; concentration of 0.11 M (so in the source)) | IC50 [2] | IC50 [3] | IC50 [4] |
| --- | --- | --- | --- | --- | --- |
| Cl.O=C(Nc1ccc(Sc2ccncc2)cc1)c1ccc(Nc2ccnc3ccccc23)cc1 [Cpd. AAA, N-[4-(pyridin-4-ylthio)phenyl]-4-(quinolin-4-ylamino)benzamide hydrochloride] | increase the RNA expression levels of p16 | greatest re-expression of p16 | 6.15 µM | 1.22 µM | 1.8 µM |
| Cl.Nc1cc(Sc2ccc(NC(=O)c3ccc(Nc4ccnc5ccccc45)cc3)cc2)ccn1 [Cpd. BBB, N-[4-(2-aminopyridin-4-ylthio)phenyl]-4-(quinolin-4-ylamino)benzamide hydrochloride] | increase the RNA expression levels of p16 | – | 0.67 µM | 0.74 µM | 1 µM |
| Cl.O=C(Nc1ccc(Sc2ccnc(O)c2)cc1)c1ccc(Nc2ccnc3ccccc23)cc1 [Cpd. CCC, N-[4-(2-hydroxypyridin-4-ylthio)phenyl]-4-(quinolin-4-ylamino)benzamide hydrochloride] | increase the RNA expression levels of p16 | – | – | 6.6 µM | – |
